One assay deals with K562. In words: Cancer cell proliferation inhibition, CCK-8, 72 hours. It is filed as cell-based. The settings on record: Homo sapiens, K562, 72 h. Put shortly: (§1)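 A375 cells (2×10^3/well) attached overnight, then received 9 three-fold dilutions (0.0015-10 μM). K562 and Ba/F3-T315I (1×10^4/well) were given 9-point series (3-fold and 5-fold respectively), final 0-10 μM. After 72 h at 37°C, CCK-8 was added for 2 h; blank-subtracted OD450 gave IC50.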

The test system of a further assay is A375. The description is as above. It is filed as cell-based. The settings on record: Homo sapiens, A-375, 72 h. Put shortly: as §1
Another assay has as its target T1, T315I (Ba/F3) (Homo sapiens, UniProt P00519, T315I, cells depend on it).
T1 construct: fused on or other part: P11274 (Breakpoint cluster region protein)
The assay is described as above. It is filed as cell-based. To be noted: read-out: T315I (Ba/F3) IC50. Summed up:
as §1

The test system of another assay is Ret^Parental (Ba/F3). In words: Cancer cell proliferation inhibition, MTS assay, 72 hours. It is filed as cell-based. To be noted: Mus musculus, BaF3. Put shortly: (§2)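 Cells seeded at 3,000 cells/well in line-specific medium and grown 24 h at 37° C, 5% CO2, then exposed 72 h to serially diluted compound from 50 μM (0.05% DMSO). MTS/PMS added for 2 h at 37° C; OD450 read; IC50 from inhibition versus solvent control, three data sets.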
A general note: Formazan colour is commonly taken as a measure of viable cells.

A further assay has as its target T2, Ret^V804M (Ba/F3) (Homo sapiens, UniProt P07949, V804M, cells depend on it, form not given).
T2 construct: candidates are KIF5B, CCDC6, TEL (ETV6), or none (full-length RET)
Described as above. To be noted: read-out: Ret^V804M (Ba/F3) IC50. It is filed as cell-based. Put shortly:
as §2

The target in another assay is T3, Ret^wt (Ba/F3) (Homo sapiens, UniProt P07949).
T3 construct: candidates are KIF5B, CCDC6, TEL (ETV6), or none (full-length RET)
Described as above. To be noted: read-out: Ret^wt (Ba/F3) IC50. It is filed as cell-based. Summed up: as §2

The next assay relates to SK-MEL-28. The assay is described as above. It is filed as cell-based. To be noted: Homo sapiens. Put shortly: as §2
The subject of the next assay is Huh7. The assay is described as above. It is filed as cell-based. To be noted: Homo sapiens, Huh-7. Summed up: as §2
The next assay relates to MDA-MB-231. In words: Real time cell proliferation, IncuCyte ZOOM, 72 hours. It is filed as cell-based. To be noted: Homo sapiens, MDA-MB-231, 72 h.
The test system of a further assay is M-NFS-60. In words: Cancer cell proliferation inhibition, CCK-8, 72 hours. It is filed as cell-based. Put shortly: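 Cells were grown in RPMI with 10% FBS, 0.05 mM 2-mercaptoethanol and human M-CSF, and seeded at 20000 cells/well. Compounds were added from a 3-fold DMSO dilution series topping at 1968 nM (dilution-plate concentration; 11 points including DMSO control). After 72 h at 37 °C, CCK-8 was added for 2 h and OD450 read.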

For the next assay, the system named is FYN (FN). Briefly: Cancer cell proliferation inhibition, MTS assay, 72 hours. It is filed as cell-based. Summed up:
as §2

The test system of a further assay is FYN (MCP-1). The description is as above. It is filed as cell-based. Put shortly:
as §2

In another assay the test system is RET (LC2/ad-CDC6). Described as above. It is filed as cell-based. The settings on record: 72 h. Put shortly:
as §2

The next assay has as its target T4, RET (Homo sapiens, UniProt P07949).
T4 construct: purchased Reaction Biology Co
Briefly: Enzyme inhibitory activity (Kd), Reaction Biology Co. It is filed as binding. As to the method: (§3) The following experiment was performed to evaluate the enzyme inhibitory activity of the compound of the present invention.
(§4) Particularly, the enzyme inhibitory activity of the compound of the present invention against BLK, CDK11, CHEK1, CSF1R, EPHB6, FGFR4, FGR, FLT3, FYN, GCN2 (Kin.Dom.2, S808G), HCK, JAK2 (JH1domain-catalytic), LCK, LOK, LYN, RET, RET (V804M), SRC and YES was investigated by Reaction Biology Co. The results are shown in Table 2 below.

The target of a further assay is T5, FGFR4 (Homo sapiens, UniProt P22455).
T5 construct: purchased Reaction Biology Co
Described as above. It is filed as binding. As to the method: as §3, §4

The target of a further assay is T6, RET(V804M) (Homo sapiens, UniProt P07949, V804M).
T6 construct: purchased Reaction Biology Co
The description is as above. It is filed as binding. The protocol: as §3, §4

pIC50, pKd: −log10 of the molar value.

T4 sequence (P07949 29-1114): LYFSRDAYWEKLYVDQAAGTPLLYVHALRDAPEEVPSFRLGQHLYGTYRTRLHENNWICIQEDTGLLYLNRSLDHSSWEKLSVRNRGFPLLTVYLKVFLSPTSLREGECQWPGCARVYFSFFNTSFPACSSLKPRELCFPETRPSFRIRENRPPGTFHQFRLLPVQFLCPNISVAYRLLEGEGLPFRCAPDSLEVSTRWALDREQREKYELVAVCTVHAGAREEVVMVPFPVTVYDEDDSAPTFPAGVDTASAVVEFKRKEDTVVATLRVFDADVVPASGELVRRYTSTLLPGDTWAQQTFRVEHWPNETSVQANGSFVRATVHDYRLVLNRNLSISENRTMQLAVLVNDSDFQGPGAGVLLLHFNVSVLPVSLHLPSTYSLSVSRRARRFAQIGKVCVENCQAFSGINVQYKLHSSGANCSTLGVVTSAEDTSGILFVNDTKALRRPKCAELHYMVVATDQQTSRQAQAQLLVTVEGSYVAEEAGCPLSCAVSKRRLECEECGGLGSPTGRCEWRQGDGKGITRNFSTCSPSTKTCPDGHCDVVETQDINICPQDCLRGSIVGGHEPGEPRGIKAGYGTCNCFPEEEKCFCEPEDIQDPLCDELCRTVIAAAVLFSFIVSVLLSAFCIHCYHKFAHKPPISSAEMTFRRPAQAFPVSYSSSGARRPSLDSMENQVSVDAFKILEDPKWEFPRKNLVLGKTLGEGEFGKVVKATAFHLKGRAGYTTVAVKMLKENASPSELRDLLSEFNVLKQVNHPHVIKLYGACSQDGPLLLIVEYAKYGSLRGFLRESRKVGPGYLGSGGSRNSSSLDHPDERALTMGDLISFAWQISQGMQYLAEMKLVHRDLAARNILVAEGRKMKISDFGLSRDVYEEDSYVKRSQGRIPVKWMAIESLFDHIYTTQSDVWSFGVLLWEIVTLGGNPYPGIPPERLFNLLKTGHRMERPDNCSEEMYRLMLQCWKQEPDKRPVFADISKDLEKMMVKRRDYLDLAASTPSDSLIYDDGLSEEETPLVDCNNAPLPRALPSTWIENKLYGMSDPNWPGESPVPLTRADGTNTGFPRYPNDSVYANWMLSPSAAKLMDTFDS
T2 sequence (P07949 whole entry V804M, form open): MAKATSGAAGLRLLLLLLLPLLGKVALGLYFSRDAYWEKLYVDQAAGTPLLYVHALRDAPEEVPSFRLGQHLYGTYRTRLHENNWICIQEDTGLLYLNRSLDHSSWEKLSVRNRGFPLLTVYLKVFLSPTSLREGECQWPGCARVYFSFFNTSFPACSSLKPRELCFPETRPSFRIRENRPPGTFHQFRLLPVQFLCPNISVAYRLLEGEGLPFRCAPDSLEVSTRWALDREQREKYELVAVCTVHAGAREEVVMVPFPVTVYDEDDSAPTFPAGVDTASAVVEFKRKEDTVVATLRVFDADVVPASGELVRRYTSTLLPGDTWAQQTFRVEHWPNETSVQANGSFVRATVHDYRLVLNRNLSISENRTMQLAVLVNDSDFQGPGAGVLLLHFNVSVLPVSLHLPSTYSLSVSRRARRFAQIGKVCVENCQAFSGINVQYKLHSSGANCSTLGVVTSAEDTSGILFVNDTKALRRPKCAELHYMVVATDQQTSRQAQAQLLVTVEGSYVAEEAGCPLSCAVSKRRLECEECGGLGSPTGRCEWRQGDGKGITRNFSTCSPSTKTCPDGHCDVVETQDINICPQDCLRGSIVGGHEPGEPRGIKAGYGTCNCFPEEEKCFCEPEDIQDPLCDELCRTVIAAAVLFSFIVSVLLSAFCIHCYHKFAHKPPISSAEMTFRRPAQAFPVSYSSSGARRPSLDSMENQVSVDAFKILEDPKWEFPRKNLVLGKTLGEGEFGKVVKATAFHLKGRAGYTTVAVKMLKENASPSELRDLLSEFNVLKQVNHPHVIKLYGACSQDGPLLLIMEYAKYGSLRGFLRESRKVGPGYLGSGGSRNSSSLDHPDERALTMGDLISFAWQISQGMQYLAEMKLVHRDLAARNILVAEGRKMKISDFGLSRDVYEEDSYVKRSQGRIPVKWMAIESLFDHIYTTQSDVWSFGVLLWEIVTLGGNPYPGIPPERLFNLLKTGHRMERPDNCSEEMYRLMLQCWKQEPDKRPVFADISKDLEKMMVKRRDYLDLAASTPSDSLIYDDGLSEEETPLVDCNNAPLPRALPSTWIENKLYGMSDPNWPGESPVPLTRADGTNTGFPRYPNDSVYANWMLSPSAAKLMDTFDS
T5 sequence (P22455 22-802): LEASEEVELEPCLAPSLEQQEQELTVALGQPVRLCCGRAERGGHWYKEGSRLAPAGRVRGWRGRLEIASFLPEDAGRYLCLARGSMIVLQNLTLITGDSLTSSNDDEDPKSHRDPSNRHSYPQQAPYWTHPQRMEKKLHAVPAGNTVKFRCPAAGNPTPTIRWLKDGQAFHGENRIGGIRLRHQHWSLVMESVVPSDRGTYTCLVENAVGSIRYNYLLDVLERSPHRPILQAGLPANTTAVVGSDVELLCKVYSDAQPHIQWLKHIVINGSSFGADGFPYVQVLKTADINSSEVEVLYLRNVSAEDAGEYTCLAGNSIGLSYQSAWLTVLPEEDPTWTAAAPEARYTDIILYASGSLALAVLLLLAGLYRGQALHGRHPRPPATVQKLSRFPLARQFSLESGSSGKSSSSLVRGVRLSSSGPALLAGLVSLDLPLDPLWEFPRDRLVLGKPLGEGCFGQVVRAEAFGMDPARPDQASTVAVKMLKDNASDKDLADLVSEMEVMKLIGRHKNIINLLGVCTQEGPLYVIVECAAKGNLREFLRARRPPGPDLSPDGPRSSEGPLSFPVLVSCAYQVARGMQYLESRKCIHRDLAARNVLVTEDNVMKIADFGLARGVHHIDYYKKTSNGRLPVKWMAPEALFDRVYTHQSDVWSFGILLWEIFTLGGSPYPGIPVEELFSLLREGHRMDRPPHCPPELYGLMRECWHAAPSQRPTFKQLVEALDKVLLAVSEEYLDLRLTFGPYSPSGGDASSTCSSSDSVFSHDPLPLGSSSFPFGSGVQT
T6 sequence (P07949 29-1114 V804M): as the sequence (P07949 29-1114) above, with V776M counted along it
T3 sequence (P07949 whole entry, change not shown): as the sequence (P07949 whole entry V804M, form open) above, with M804V counted along it

The pIC50 is −log10 of the IC50, conventionally taken in molar units. Regarding `Cc1ccc(C(=O)Nc2ccc(Cl)cc2)cc1C#Cc1cnc2c(Nc3cnn(C)c3)cccn12` [Example 7, N-(4-chlorophenyl)-4-methyl-3-((8-((1-methyl-1H-pyrazol-4-yl)amino)imidazo[1,2-a]pyridin-3-yl)ethynyl)benzamide], the pIC50 with K562 is 8.70; in the assay with A375 it was 5.21; in the assay with Ret^Parental (Ba/F3), 5.12; with SK-MEL-28, 5.21; with Huh7, 5.32; with MDA-MB-231 it was less than 5.00. Also, the figures for the GI50 on T315I (Ba/F3), on Ret^V804M (Ba/F3) and on Ret^wt (Ba/F3) were greater than 10000 nM, 1920 nM and 798 nM, respectively.
Consider `CCN1CCN(Cc2ccc(NC(=O)c3ccc(C)c(C#Cc4cnc5c(Nc6ccn(C)n6)cccn45)c3)cc2C(F)(F)F)CC1` [Example 10, N-(4-((4-ethylpiperazin-1-yl)methyl)-3-(trifluoromethyl)phenyl)-4-methyl-3-((8-((1-methyl-1H-pyrazol-3-yl)amino)imidazo[1,2-a]pyridin-3-yl)ethynyl)benzamide], for which the pIC50 with K562 was greater than 9.00; in the assay with A375, 6.59; in the assay with M-NFS-60 it was 6.77; in the assay on FYN (FN), greater than 7.00; in the assay on Ret^Parental (Ba/F3) it was 5.60; in the assay on SK-MEL-28, 6.10. Also, the negative logarithm of the IC50 (pIC50) was 6.90 in the assay with Huh7, greater than 7.00 in the assay on FYN (MCP-1) and 6.54 in the assay on MDA-MB-231. Moreover, the values for the GI50 on T315I (Ba/F3), on Ret^V804M (Ba/F3) and on Ret^wt (Ba/F3) were 37.1 nM, 23 nM and 4 nM, respectively.
As to `Cc1ccc(C(=O)Nc2cccc(C(F)(F)F)c2)cc1C#Cc1cnc2c(Nc3cnn(C)c3)cccn12` [Example 13, 4-methyl-3-((8-((1-methyl-1H-pyrazol-4-yl)amino)imidazo[1,2-a]pyridin-3-yl)ethynyl)-N-(3-(trifluoromethyl)phenyl)benzamide], the pIC50 is greater than 9.00 in the assay on K562; 5.82 in the assay on A375; 7.33 with M-NFS-60; greater than 6.00 with FYN (FN); greater than 7.00 in the assay on RET (LC2/ad-CDC6); 5.65 in the assay with SK-MEL-28. Also, the negative logarithm of the IC50 (pIC50) in the assay with Huh7 is 6.51; with FYN (MCP-1) it was greater than 6.00; with MDA-MB-231, 5.80. The GI50 at T315I (Ba/F3) was found to be 7.06 nM; on Ret^V804M (Ba/F3), 172 nM; at Ret^wt (Ba/F3) it was 16 nM.
As a reminder, the pKd is the Kd on a negative log10 scale, so that one unit is a factor of ten. As to `CCN1CCN(Cc2ccc(NC(=O)c3ccc(C)c(C#Cc4cnc5c(Nc6cnn(C(C)C)c6)cccn45)c3)cc2C(F)(F)F)CC1` [Example 15, N-(4-((4-ethylpiperazin-1-yl)methyl)-3-(trifluoromethyl)phenyl)-3-((8-((1-isopropyl-1H-pyrazol-4-yl)amino)imidazo[1,2-a]pyridin-3-yl)ethynyl)-4-methylbenzamide], the pIC50 with K562 was 8.52; in the assay on A375 it was 6.53; in the assay on FYN (FN), greater than 7.00; in the assay with Ret^Parental (Ba/F3), 5.67; with RET (LC2/ad-CDC6), less than 8.00; with SK-MEL-28 it was 5.93. In addition, the pIC50 with Huh7 was 7.17; in the assay with FYN (MCP-1) it was greater than 7.00; with MDA-MB-231 it was 6.24. The GI50 on T315I (Ba/F3) was 47.4 nM; on Ret^V804M (Ba/F3), 18 nM; on Ret^wt (Ba/F3), 6 nM. The pKd is 7.80 on RET, 6.89 at FGFR4 and 7.77 on RET(V804M).
On to `Cc1ccc(C(=O)Nc2ccc(CN3CCN(C)CC3)c(C(F)(F)F)c2)cc1C#Cc1cnc2c(Nc3ncccc3F)cccn12` [Example 16, 3-((8-((3-fluoropyridin-2-yl)amino)imidazo[1,2-a]pyridin-3-yl)ethynyl)-4-methyl-N-(4-((4-methylpiperazin-1-yl)methyl)-3-(trifluoromethyl)phenyl)benzamide], for which the pIC50 was 7.12 in the assay on K562; less than 5.00 in the assay with A375; greater than 5.00 in the assay on FYN (FN); greater than 6.00 in the assay with RET (LC2/ad-CDC6); 5.74 with SK-MEL-28; 5.01 in the assay on Huh7. Also, the pIC50 is greater than 5.00 in the assay with FYN (MCP-1) and 5.79 in the assay on MDA-MB-231. For the same compound, the GI50 on T315I (Ba/F3) came out at 54.5 nM; at Ret^V804M (Ba/F3), 13000 nM; on Ret^wt (Ba/F3) it was 320 nM.
Take `CCN1CCN(Cc2ccc(NC(=O)c3ccc(C)c(C#Cc4cnc5c(Nc6ncccc6F)cccn45)c3)cc2C(F)(F)F)CC1` [Example 17, N-(4-((4-ethylpiperazin-1-yl)methyl)-3-(trifluoromethyl)phenyl)-3-((8-((3-fluoropyridin-2-yl)amino)imidazo[1,2-a]pyridin-3-yl)ethynyl)-4-methylbenzamide]: the negative logarithm of the IC50 (pIC50) in the assay on K562 is 7.07; in the assay on A375, less than 5.00; in the assay on FYN (FN), greater than 5.00; in the assay on SK-MEL-28, 5.77; with Huh7 it was 5.54; in the assay on FYN (MCP-1), greater than 5.00. This compound gave a pIC50 with MDA-MB-231 of 5.02. Moreover, the results for the GI50 at T315I (Ba/F3) and on Ret^wt (Ba/F3) were 1470 nM and 434 nM, respectively.
With `Cc1ccc(C(=O)Nc2ccc(CN3CCN(C)CC3)c(C(F)(F)F)c2)cc1C#Cc1cnc2c(Nc3ncccc3C)cccn12` [Example 18, 4-methyl-N-(4-((4-methylpiperazin-1-yl)methyl)-3-(trifluoromethyl)phenyl)-3-((8-((3-methylpyridin-2-yl)amino)imidazo[1,2-a]pyridin-3-yl)ethynyl)benzamide], the pIC50 was 7.01 in the assay with K562; less than 5.00 in the assay with A375; greater than 5.00 with FYN (FN); 5.51 in the assay on Huh7; greater than 5.00 in the assay on FYN (MCP-1); 5.08 in the assay on MDA-MB-231. Besides, the GI50 is greater than 10000 nM at T315I (Ba/F3) and 19400 nM on Ret^wt (Ba/F3).
Take `Cc1ccc(C(=O)Nc2ccc(CN3CCN(C)CC3)c(C(F)(F)F)c2)cc1C#Cc1cnc2c(Nc3cnn(CCCN(C)C)c3)cccn12` [Example 26, 3-((8-((1-(3-(dimethylamino)propyl)-1H-pyrazol-4-yl)amino)imidazo[1,2-a]pyridin-3-yl)ethynyl)-4-methyl-N-(4-((4-methylpiperazin-1-yl)methyl)-3-(trifluoromethyl)phenyl)benzamide]: the negative logarithm of the IC50 (pIC50) in the assay with K562 is greater than 9.00; in the assay on A375, 6.08; in the assay on M-NFS-60, 6.92; in the assay with RET (LC2/ad-CDC6), greater than 7.00; with SK-MEL-28 it was 5.72; with Huh7 it was 7.62. Besides, the values for the pIC50 in the assay with FYN (MCP-1) and with MDA-MB-231 were 5.50 and 5.89, respectively. Also, the GI50 on T315I (Ba/F3) stood at 158 nM. In addition, the negative logarithm of the Kd (pKd) is 8.10 on RET, 7.09 on FGFR4 and 7.92 on RET(V804M).
As to `Cc1ccc(C(=O)Nc2ccc(CN3CCC(N(C)C)C3)c(C(F)(F)F)c2)cc1C#Cc1cnc2c(Nc3cnn(C(C)C)c3)cccn12` (stereo not drawn) [Example 30, N-(4-((3-(dimethylamino)pyrrolidin-1-yl)methyl)-3-(trifluoromethyl)phenyl)-3-((8-((1-isopropyl-1H-pyrazol-4-yl)amino)imidazo[1,2-a]pyridin-3-yl)ethynyl)-4-methylbenzamide], the pIC50 was greater than 9.00 in the assay on K562; 6.12 in the assay with A375; 7.00 with RET (LC2/ad-CDC6); 5.95 in the assay on SK-MEL-28; 7.77 with Huh7; 5.11 in the assay on FYN (MCP-1). The compound further had a pIC50 in the assay with MDA-MB-231 of 5.86. On T315I (Ba/F3), the GI50 was determined as 126 nM. For the same compound, the figures for the pKd at RET, on FGFR4 and on RET(V804M) were 8.03, 6.72 and 7.89, respectively.

The values are drawn from patent US10870647B2, “Imidazopyridine derivative, method for preparing same, and pharmaceutical composition containing same as active ingredient for preventing or treating cancer” (DAEGU-GYEONGBUK MEDICAL INNOVATION FOUNDATION, priority 2016, dated 2020).
